Where “and” joins values, the source holds several entries; their conditions need not be identical. Identical values can stand only once. Like-named read-outs stand apart in the source and are kept apart here.
Columns and labels:
mice [1] = assay: Gas matrix: metabolic flexibility in altered gas environments, mice; format: in vivo, mouse; details: 0.01% in room air, ambient 7 to 10° C., 6-hour treatment
Description: (§1) Metabolic flexibility was evaluated in mice rats and dogs using altered gas environments. Three parameters were used to define this reduction in metabolism including changes in carbon dioxide production, oxygen consumption measured by respirometry, and core temperature as measured using telemetry. In experiments with mice and rats the animals were placed into sealed chambers with one gas import and one gas export. For dogs a mask was placed over the snout of the animal with two hoses (import and export) attached to the mask. The flow rate of gas for each of the animals mice—500 cc per minute, rats—2 liters per minute, and dogs 40 liters per minute. Each atmosphere was constructed from compressed gas by dilution into room air unless otherwise noted. For rat and mouse experiments the ambient temperature was 7 to 10° C. during exposure to the test gases. For dogs ambient temperature was room temperature (22° C.).
(§2) Evidence of depression in metabolic rate of greater than 5-fold as judged by carbon dioxide production or oxygen consumption during a 6-hour treatment is described by “Yes”; […]; “N/D” denotes experiments not done. The temperature drop in the dog experiment (Carbon dioxide+low oxygen+Helium) was approximately 1.5° C. over the course of 30 minutes of exposure. This drop in temperature was considered significant because the dog was 12 kg and no such temperature drop was seen during extensive baseline recording of the animal in room air.

dogs = assay: Gas matrix: metabolic flexibility in altered gas environments, dogs; format: in vivo, dog; details: 0.85% in room air, mask, room temperature (22° C.)
Description: as §1, §2

rats [2] = format: in vivo, rat
Description: After surgical implantation of catheters and recovery, blood was removed from conscious animals in 40 minutes. […] Three hours after the end of the bleed, surviving animals were given one shed-blood volume of lactated ringers solution intravenously.

mice [3] = format: in vivo, mouse (C57Bl/6)
[4] = in vivo; cited from earlier work
Drosophila melanogaster = assay: Anoxia tolerance of Drosophila melanogaster after CO2 / H2S treatment; format: in vivo; details: adult flies
Description: Adult flies were introduced into 35 mL tubes made of glass with a gas-tight rubber stopper (Balsh tubes). This was usually accomplished by anesthetizing flies with CO2, moving groups of flies to vials with food to recover for at least 2 hours, and then transferring them into the Balsh tube. To exchange the gaseous environment in the Balsh tube, two 18 gauge needles were inserted into the rubber stopper, and gas is blown into one of the needles at 100 mL/min. To prevent dessication, gasses were humidified by bubbling through 10 mL of water before passing it through the Balsch tube. The water in the bubbler is equilibrated with the gas for at least 20 minutes before starting the experiment.
For “stopped-flow” experiments, gas exchange proceeded for 60 minutes before sealing the tube. For “low-flow” experiments, gas flow continued throughout the experiment. CO2 was from the house source (100%), and anoxic environments were established by flushing out room air with 100% nitrogen (N2). Care was taken to prevent introduction of room air into the system while switching the atmosphere from CO2 to N2.
After anoxic treatment, oxygen was reintroduced into the Balsh tube by flushing with house air for 20 minutes. The rubber stopper was then removed and a food vial is inverted over the top of the Balsh tubes with Parafilm. […] Viability was scored at least 18 hours after the end of anoxic treatment. After two weeks, if the food vials contained larvae and/or pupae the flies were considered to be fertile.

rats [5] = system: rats
Description: On the day of the experiment, catheters were surgically implanted into the right femoral artery and vein. Catheters exited behind scapulae. Rats were administered buprenorphine post-surgically and allowed to recover.
The anti-coagulant drug heparin (80-100 units) was administered intravenously as a bolus to decrease the clotting ability of the blood and enhance hemorrhage. […] Catheters, temperature probe, and gas sampling tube were passed through a hole drilled in the middle of the lid. Temperature was maintained at approximately isothermal temperature (27+/−2° C.).
The hemorrhage model was defined by the removal of 60% of total body blood over the course of a 40 minute bleed. Blood was removed using a peristaltic pump.
Blood was removed at the calculated rate via the femoral catheter artery. Blood was weighed as it was removed.
Metabolic rate was determined by measuring CO2 production (Licor Li7000). Temperature and CO2 data were collected (ADI PowerLab). Arterial blood values were measured (I-Stat blood chemistry analyzer). Following the bleed, animals were placed in a cage for three hours and observed. At the end of three hours, surviving rats were given lactated ringers ad libitum. For non-surviving animals, time of death was declared when animals stopped breathing and CO2 production ceased. […]

C. elegans nematodes = details: in vivo

## S [H2S, hydrogen sulfide]
Mice [1]
  depression in metabolic rate, Mouse: Yes 0.01% (Evidence of depression in metabolic rate of greater than 5-fold as judged by carbon dioxide production or oxygen consumption during a 6-hour treatment is described by “Yes”)
dogs
  depression in metabolic rate, Dog: No 0.85% (“No” (reduction or less than a 5-fold reduction in these values is described as such)
Rats [2]; 300 ppm H2S
  rats surviving hemorrhage and 3 hour shock period: 6/7
Rats [2]; 300 ppm H2S from 30% blood loss to end of 40 minute bleed
  Complete recovery: 85.7% (6/7)
Rats [2]; 15 minutes post bleed
  CO2 production (VCO2): 17 ± 3 mL/min/kg
Rats [2]; End of bleed
  Blood CO2 content (pCO2): 35 +/− 6 mmHg
  Blood Lactate: 6.6 ± 1 mmol/L
  Blood base excess: -5 ± 4 mmol/L
  Blood bicarbonate content ([HCO3]): 21 ± 3 mmol/L
  Blood pH: 7.41 +/− 0.02
  CO2 production (VCO2): 16 ± 2 mL/min/kg
Rats [2]; Mid-bleed
  CO2 production (VCO2): 20 ± 2 mL/min/kg
Rats [2]; Pre-bleed
  Blood CO2 content (pCO2): 45 +/− 6 mmHg
  Blood Lactate: 1.4 ± 0.5 mmol/L
  Blood base excess: 8 ± 2 mmol/L
  Blood bicarbonate content ([HCO3]): 32 ± 3 mmol/L
  Blood pH: 7.46 +/− 0.03
  CO2 production (VCO2): 25 ± 4 mL/min/kg
Rats [2]; after the end of the bleed, 300 ppm H2S
  Time to death of non-survivors: 174 min and 174 (1/7) min
Mice [3]; 150 ppm H2S 20 minutes, then 5% O2 for several hours (FIG. 25)
  drop in CO2 production during hypoxia from pre-exposure level: approximately 50 fold
Mice [3]; 150 ppm H2S 20 minutes, then several hours of 5% O2, pre-exposure approximately 2500 ppm
  CO2 output: approximately 50 ppm
Mice [3]; 150 ppm H2S prior to oxygen tension reduced to between 5% and 2.5% (FIG. 24)
  survival time at lethal oxygen tensions: at least 60 minutes
Mice [3]; pre-treatment with H2S, new lower baseline
  reduction in CO2 evolution: 50-60%
[4]
  LD50: approximately 700 ppm
  adverse effects, gross and histopathological examination: no observed adverse effect
  behavioral toxicity: Significant reductions in motor activity, water maze performance and body temperature
  perinatal toxicity: no neuropathological effects
  tolerability: innocuous
Drosophila melanogaster; 50 ppm H2S in room air prior to 18.5 h anoxia
  survival: 25%
Drosophila melanogaster; 50 ppm H2S present in the CO2 pretreatment and removed as anoxia is established, 20 h
  survival: 35%
Drosophila melanogaster; CO2 10 min, H2S/CO2 10 min, N2/H2S 10 min, then N2, 15 h anoxic exposure, low-flow
  survival: 50%
Rats [5]; 2000 ppm H2S in room air at 20 minutes of the 40 minute bleed, generally 1 to 2 minutes, 7 out of 8
  survival of the hemorrhage: 88%
Rats [5]; rat, in vivo
  signs during exposure: apnea and dystonia
C. elegans nematodes
  lethality: considerable lethality
  progeny: same number of progeny
